# From patent publication US4875922A, “Pyrimidine derivatives” (Imperial Chemical Industries PLC, priority 1986, dated 1989)
# Read-outs that look alike come from different tables or passages of the source.
# Legend:
# Spring Barley = assay: Intermediate Retardant Test, spring barley; format: in vivo, Spring Barley (Atem/kym); details: Hordeum vulgare, 672 h, read-out: Percentage Reduction in Height of Spring Barley (Compared to formulation blank)
# How it was run: (§1)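 Overall spray at 500 and 2000 ppm (0.5 and 2 kg/ha^-1 at 1000 l/ha^-1); for apples, a 2000 ppm foliar-only spray was also compared with a 2000 ppm root drench. Rice grew in flooded 4" paddy pots, barley and apples in 4" pots. About 28 days after treatment, height (to top-most ligule, or to apex for apples) was recorded as % reduction versus formulation blank.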
# Apples [1] = assay: Intermediate Retardant Test, apples, overall spray; format: in vivo, Apples (Red Delicious); details: approximately 28 days, Table VIII
# Description: Three species are involved in this test RICE, SPRING-BARLEY and APPLES. The variety and growth stages at spray are outlined in Table V. Compounds were applied at 500 ppm and 2000 ppm respectively (0.5 kg and 2 kg/ha^-1 at a field volume of 1000 l/ha^-1) as an overall spray except in the case of certain tests on APPLES. This gives a foliar and root component in the test, i.e., this test will detect the activity of both root and foliar acting compounds. The intermediate retardant test on APPLES of which the results are given in Table IX was different, in that a foliar (only) spray at 2000 ppm was compared with a root drench, also at 2000 ppm. The rice was grown in 4" `paddy` pots, i.e., the roots and bottom of the stems are immersed in water under conditions corresponding to those in paddy fields. Spring barley and apples were grown in 4" pots. The plants were assessed for height to top-most ligule at approximately 28 days after treatment for spring barley and rice and for height to apex at approximately 28 days after the treatment for apples. In each case the result for the 500 ppm and 2000 ppm test for each compound is compared to the height of the formulation blank in that test, presented as a percentage reduction in height compared to the formulation blank.
# Apple = assay: Whole plant screen for plant growth regulator activity, apple (AP); format: in vivo, Apple (Red Delicious); details: 4000 ppm (4 kg/ha), visual score after 2-6 weeks
# How it was run: (§2)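 Visual scoring of morphological effects after 2-6 weeks in glasshouse, compared with formulation-blank controls. Spray application was 4000 ppm, equal to 4 kg/ha at 1000 l/ha field volume, at set leaf stages. Growth at 25° C./22° C. day/night with 16 hour photoperiod; temperate cereals wheat and barley at 16° C./13° C.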
# Rice [2] = assay: Whole plant screen for plant growth regulator activity, rice (RC); format: in vivo, Rice (Ishikari); details: 4000 ppm (4 kg/ha), visual score after 2-6 weeks; for T = Tillering or side shooting: * = decrease in tillering
# How it was run: as §2
# Maize = assay: Whole plant screen for plant growth regulator activity, maize (MZ); format: in vivo, Maize (Earliking); details: 4000 ppm (4 kg/ha), visual score after 2-6 weeks
# Description: Compounds 1 to 3 in Table 1 were tested for plant growth regulator activity against five species for various growth effects relevant to plant growth regulation.
# The plant species used in this screen are presented in Table II with the leaf stage at which they were sprayed. Each chemical was applied at 4000 ppm (4 kg/ha in a 1000 l/ha field volume) using a tracksprayer and a SS8004E (Teejet) nozzle.
# After spray the plants were grown in a glasshouse with 25° C. day/22° C. night temperatures and supplementary lighting was supplied when necessary (from mercury vapour lamps), to provide a 16 hour photoperiod. The exception to this were the temperate cereals, wheat and barley which were grown in 16° C. day/13° C. night temperatures.
# After 2-6 weeks in the glasshouse, depending on the time of year, the plants were visually assessed for morphological characteristics. Formulation blanks were used as controls to assess the plants. […]
# Rice [3] = assay: Intermediate Retardant Test, rice; format: in vivo, Rice (Ishikari); details: Oryza sativa, 672 h, read-out: Percentage Reduction in Height of Rice (Compared to formulation blank)
# How it was run: as §1
# Wheat = assay: Whole plant screen for plant growth regulator activity, wheat (WW); format: in vivo, Wheat (Timmo); details: WW, 4000 ppm (4 kg/ha), visual score after 2-6 weeks; for T = Tillering or side shooting: * = decrease in tillering
# How it was run: as §2
# Apples [4] = assay: Intermediate Retardant Test, apples, foliar spray compared with root drench; format: in vivo, Apples (Red Delicious); details: 672 h, read-out: Percentage Reduction in Height of Apples (Compared to formulation blank)
# How it was run: as §1
# Barley = assay: Whole plant screen for plant growth regulator activity, barley (BR); format: in vivo, Barley (Atem); details: BR, 4000 ppm (4 kg/ha), visual score after 2-6 weeks; for T = Tillering or side shooting: * = decrease in tillering
# How it was run: as §2
# Tomato = assay: Whole plant screen for plant growth regulator activity, tomato (TO); format: in vivo, Tomato (Ailsa Craig); details: 4000 ppm (4 kg/ha), visual score after 2-6 weeks
# How it was run: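 Plant growth regulation scored visually 2–6 weeks post-spray, relative to formulation-blank controls, with growth at 25/22 °C day/night under 16 h light. Treatment: 4000 ppm (4 kg/ha, 1000 l/ha volume) track-sprayed onto Ailsa Craig tomato at the 2–2½ leaf stage, grown singly in 3-inch peat pots.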
# [5] = overall spray, approximately 28 days, Table VII
# [6] = side-by-side comparison with prior art compound, Table XI
# [7] = overall spray, approximately 28 days, Table VI
# [8] = side-by-side comparison with prior art compound, Table X
# [9] = 2000 ppm (Foliar), side-by-side comparison with prior art compound, Table XII
# [10] = 2000 ppm (Root), side-by-side comparison with prior art compound, Table XII
SMILES,percent reduction in plant height at 500 ppm (Spring Barley; [5]),percent reduction in plant height at 500 ppm (Spring Barley; [6]),percent reduction in plant height at 2000 ppm (Spring Barley; [5]),Percentage Reduction in Height of Apples (Compared to formulation blank) (Apples [1]; 2000 ppm),G = Greening effect (Apple),I = Interligular or internodal length reduction (Apple),R = Retardation (Apple),G = Greening effect (Rice [2]),I = Interligular or internodal length reduction (Rice [2]),R = Retardation (Rice [2]),Percent reduction in rice height vs formulation blank at 500 ppm (Rice [3]; [7]),Percent reduction in rice height vs formulation blank at 2000 ppm (Rice [3]; [7]),G = Greening effect (Wheat),I = Interligular or internodal length reduction (Wheat),R = Retardation (Wheat),T = Tillering or side shooting (Wheat),G = Greening effect (Barley),I = Interligular or internodal length reduction (Barley),R = Retardation (Barley),T = Tillering or side shooting (Barley),further results
"CCCC#CC(O)(c1cncnc1)C(C)C (stereo not drawn) [Compound 2, 2-methyl-1-(pent-1-yne)-1-(pyrimidin-5-yl)-propan-1-ol]",1%,25%,20%,52.1%,1 (10-30%),2 (31-60%),3 (61-100%),2 (31-60%),3 (61-100%),3 (61-100%),18%,46%,2 (31-60%),3 (61-100%),2 (31-60%),2 (31-60%),1 (10-30%),3 (61-100%),3 (61-100%),3 (61-100%),percent reduction in plant height at 2000 ppm (Spring Barley; [6]): 59%; Percentage Reduction in Height of Apples (Compared to formulation blank) (Apples [1]; 500 ppm): 10.5%; T = Tillering or side shooting (Rice [2]): 3 (61-100%); I = Interligular or internodal length reduction (Maize): 1 (10-30%); R = Retardation (Maize): 2 (31-60%); Percent reduction in rice height vs formulation blank at 500 ppm (Rice [3]; [8]): 27%; Percent reduction in rice height vs formulation blank at 2000 ppm (Rice [3]; [8]): 69%; percent reduction in plant height at 2000 ppm (Apples [4]; [9]): 41.8%; percent reduction in plant height at 2000 ppm (Apples [4]; [10]): 64.4%
"CCCCCC(O)(c1cncnc1)C(C)C (stereo not drawn) [Compound 3, 2-methyl-1-pentyl-1-(pyrimidin-5-yl)-propan-1-ol]",–,0%,11%,34.1%,1 (10-30%),2 (31-60%),3 (61-100%),2 (31-60%),2 (31-60%),3 (61-100%),17%,47%,1 (10-30%),3 (61-100%),3 (61-100%),2 (31-60%),2 (31-60%),3 (61-100%),3 (61-100%),3 (61-100%),T = Tillering or side shooting (Rice [2]): 1 (10-30%); A = Apical damage (Maize): 1 (10-30%); Percent reduction in rice height vs formulation blank at 500 ppm (Rice [3]; [8]): 17%; percent reduction in plant height at 2000 ppm (Apples [4]; [9]): 14.2%; percent reduction in plant height at 2000 ppm (Apples [4]; [10]): 62.7%
"CCCC#CC(O)(c1cncnc1)C(C)(C)C (stereo not drawn) [Compound 14, 2,2-Dimethyl-1-(pent-1-yne)-1-(pyrimidin-5yl)propan-1ol]",51%,–,68%,–,3 (61-100%),3 (61-100%),3 (61-100%),2 (31-60%),2 (31-60%),3 (61-100%),63%,76%,2 (31-60%),3 (61-100%),3 (61-100%),3 (61-100%),2 (31-60%),3 (61-100%),3 (61-100%),3 (61-100%),"T = Tillering or side shooting (Apple; * = decrease in tillering): 1 (10-30%); G = Greening effect (Tomato): 2 (31-60%); I = Interligular or internodal length reduction (Tomato): 2 (31-60%); R = Retardation (Tomato): 3 (61-100%); A = Apical damage (Maize): 1 (10-30%); G = Greening effect (Maize): 2 (31-60%); I = Interligular or internodal length reduction (Maize): 3 (61-100%); R = Retardation (Maize): 2 (31-60%); percent reduction in plant height at 2000 ppm (Apples [4]; 2000 ppm (Foliar), approximately 28 days, Table IX): 23%; percent reduction in plant height at 2000 µg/mL (Apples [4]; soil, 2000 pmm (Root), root drench, approximately 28 days, Table IX): 58.5%"
